Data as given in paper PMC8706516, “Spray-Dried Powder Formulation of Capreomycin Designed for Inhaled Tuberculosis Therapy” (Pharmaceutics, 2021).
Where two headings read alike, the source gives them in different places. Marks after values point to notes of the source that are not given here.

Assay type: in vivo, BALB/c mice
Settings: 20 mg/kg
Method: BALB/c mice of either gender aged 7 to 9 weeks weighing between 18 to 30 g were employed in this study. The mice were obtained from the Centre for Comparative Medicine Research, The University of Hong Kong. They were housed in a 12-h light/12-h dark cycle with food and water supplied ad libitum. All the animal experiments were performed with the approval from the Committee on the Use of Live Animals in Teaching and Research, The University of Hong Kong (CULATR 4921-19, approved on 1 February 2019).
The mice were randomly divided into two treatment groups (n = 45 per group, five mice per time point, nine time points in total). The intravenous (IV) group received capreomycin (sulfate) solution prepared in normal saline (4 mg/mL) via tail vein injection at a dose of 20 mg/kg. Intratracheal (IT) group received the C25_T90 formulation as powder aerosol intratracheally as previously described. In brief, the powder was loaded in a 200 µL gel loading pipette tip, which was connected with a three-way stopcock and 1 mL syringe. The pipette tip was inserted into the trachea of mice under anesthesia. The powder was dispersed into the lungs of mice by 0.6 mL of air in the syringe. After each powder insufflation, the pipette tip was removed and rinsed with 1 mL ultra-pure water. The rinsing solution was assayed by HPLC to calculate the residual mass of capreomycin in the tip. The delivered mass of capreomycin was calculated as drug content in the loaded mass of powder minus the residual mass of capreomycin in the tip. The insufflation efficiency (%) was the ratio of delivered mass of capreomycin to the loaded mass of capreomycin. According to a preliminary study, the insufflation efficiency of C25_T90 formulation was around 80% (unpublished data). […] The delivered dose within 17.5 to 22.5 mg/kg was considered successful administration, and mice that received dose outside this range were excluded. At 5 min, 15 min, 30 min, 1 h, 2 h, 4 h, 6 h, 8 h, and 24 h post-administration, the mice were euthanized with overdose pentobarbital (200 mg/kg). The whole blood was collected by cardiac puncture, followed by centrifugation at 13,000 rpm for 10 min to obtain the plasma. The lungs were collected and frozen in liquid nitrogen immediately. The plasma and lung tissues were stored at −80 °C until further analysis.
The extraction of capreomycin from plasma and tissue homogenates was performed according to a previous study with minor modification. Tissue homogenates were obtained by homogenizing the tissue with sterile water. A volume of 1 µL perchloric acid was added to a microcentrifuge tube containing 100 µL of plasma or tissue homogenates to induce protein precipitation. The mixtures were vortexed for 10 min and centrifuged at 16,000× g for 10 min. The supernatant was collected and neutralized with 110 µL basic mix of 1:10 KOH/K2HPO4 solution. The obtained mixtures were then vortexed, followed by centrifugation at 16,000× g for 15 min. The supernatant was transferred to glass vials for HPLC analysis. A standard curve was obtained by spiking known concentrations of capreomycin (0.6 to 40.0 µg/mL) into blank plasma or blank lung tissue homogenate followed by treatment as mentioned above. HPLC was performed using a C18 column (5 μm, 4.6 × 250 mm, Agilent, Santa Clara, CA, USA) with a guard cartridge. In this HPLC method, HFBA replaced TFA to improve peak resolution of the samples. The mobile phase consisted of 0.1% HFBA in ultrapure water (solvent A) and 0.1% HFBA in HPLC grade acetonitrile (solvent B), pumped at 1 mL/min under the following gradient: 0 to 2 min, 80% A; 2 to 22 min, 80–20% A; 22 to 25 min, 20% A (v/v). A volume of 50 µL sample was injected and capreomycin was detected by UV absorption at 268 nm. Capreomycin eluted at approximately 9.7 min with this method. […]

[1] = lung tissue, intravenous solution
[2] = lung tissue, intravenous, solution in normal saline, HPLC-UV, noncompartmental, mean ± SD, n = 5
[3] = lung tissue, intravenous, solution in normal saline, HPLC-UV, noncompartmental, mean ± SD, only three sets of data
[4] = plasma, intravenous, solution in normal saline, HPLC-UV, noncompartmental, mean ± SD, n = 5

## Capreomycin
[1]
  Time after administration at which capreomycin was no longer detectable in the lung: 1 h
  Time to Cmax: ≤ 20 min
[2]
  AUC0–t: 6710 ± 510 ng·h/mL
  Cmax: 18.23 ± 8.34 µg/g
  MRT: 13.8 ± 7.8 min
  Tmax: 7.2 ± 4.2 min
[3]
  AUC0–∞: 7.78 ± 0.46 ^b µg·h/mL
  Kel: 2.37 ± 0.23 ^b h^−1
  t1/2: 0.29 ± 0.03 ^b h
[4]
  Cmax: 74.89 ± 10.94 µg/mL
  AUC0–t: 32550 ± 5520 ng·h/mL
  AUC0–∞: 33.78 ± 5.54 µg·h/mL
  Kel: 2.74 ± 1.67 h⁻¹
  t1/2: 0.34 ± 0.20 h
plasma, intravenous solution
  Tmax: ≤ 10 min
